According to patent US10315994B2, “Photostable compounds, absorbing compounds and uses thereof” (Commonwealth Scientific and Industrial Research Organisation, priority 2015, dated 2019):

Tests used:
Format in all cases: physicochemical
[1] = Solubility in sunscreen formulation / 3% solution in EtOH:capric/caprylic triglyceride:C12-C15 alkyl benzoate; conditions: for Solubility in standard commercial sunscreen formulations: e.g. 3% solution in 2:1:1 EtOH:capric/caprylic triglyceride:C12-C15 alkyl benzoate
Experimental: In one embodiment, the compounds may provide for improved solubility or stability in standard compositions, including sunscreen compositions. […] Such solubility may be measured by generating, for example, a 3% solution of the relevant compound in 2:1:1 EtOH:capric/caprylic triglyceride:C12-C15 alkyl benzoate.
(§1) 1 mL of a 3% solution of the test compound (30 mg of test compound in 1 mL solvent) was prepared in a solvent mix made up of 50% EtOH and 25% capric/caprylic triglyceride and 25% C12-C15 alkyl benzoate. 50 μL of this solution (containing 1.5 mg of test compound) was added carefully to the centre of a glass microscope slide and the volatile components left to evaporate in the dark for at least 3 hours to give a liquid film. The prepared films were then exposed for 1 hour to an Eimac 150 W xenon arc lamp filtered through Pyrex (15 Amp supply current, samples 19 cm from the lamp) previously allowed to warm up for 15 minutes prior to sample exposure. The irradiation was performed in a fume cupboard where the air flow was sufficient to keep sample T<30° C. One hour's exposure represented a calculated radiation dose (using meter) of approximately 100 MED.

[2] = Photostability of thin films exposed to xenon arc lamp; conditions: for % λmax (% of original absorbance remaining): absorbance at λmax, irradiated vs unirradiated, xenon arc lamp 1 hour, thin film
Experimental: as §1, with “The prepared films were then exposed for 1 hour to an Eimac 150 W xenon arc lamp filtered through Pyrex (15 Amp supply current, samples 19 cm from the lamp) previously allowed to warm up for 15 minutes prior to sample exposure.” left out
In order to calculate the photostability of the test compounds, the exposed slides were placed in a beaker and rinsed with 2×5 mL EtOH, 1×5 mL MeOH. The combined washings were then added to a 100 mL volumetric flask and made up to 100 mL total volume with methanol. The UV absorbance was then measured in a 10 mm cuvette. The percent stability is measured as the ratio of absorbance at λmax for the irradiated sample compared to the unirradiated sample. As a further measure, a comparison of the sum of the absorbance in the 290-400 nm range was calculated.
The thin films are a good surrogate for testing the stability of a candidate in a sunscreen formulation as they use cosmetic emollients as solvent and are formed at cosmetically relevant concentrations.

[3] = UV/visible absorbance characteristics (λmax, λcrit, ε, E 1%,1 cm)

For `CCCOC(=O)CCC(=O)C1=CN(c2ccc(N3C=C(C(=O)CCC(=O)OCCC)C(C)(C)CC3)cc2)CCC1(C)C` [Compound 152], which “Solubility in standard commercial sunscreen formulations” value [1] is on record?
Its value is “readily soluble”.

Which “Solubility in standard commercial sunscreen formulations” value [1] does the source give for `CC(C)=CCCC(C)CC(=O)C1=CN(c2ccc(N3C=C(C(=O)CC(C)CCC=C(C)C)C(C)(C)CC3)cc2)CCC1(C)C` (centres unmarked) [Compound 154] here?
Its value is “readily soluble”.

For `CC(C)=CCCC(C)CC(=O)C1=CN(c2ccc(N3C=C(C(=O)CC(C)CCC=C(C)C)C(C)(C)CC3)cc2)CCC1(C)C` (centres unmarked) [Compound 155], which “Solubility in standard commercial sunscreen formulations” value [1] is on record?
Its value is “readily soluble”.

What does the source list for `CCCCC(CC)COC(=O)CCC(=O)C1=CN(c2ccc(N3C=C(C(=O)CCC(=O)OCC(CC)CCCC)C(C)(C)CC3)cc2)CCC1(C)C` (centres unmarked) [Compound 153]?
% λmax (% of original absorbance remaining) [2]: 52%; Solubility in standard commercial sunscreen formulations [1]: readily soluble

Which “Solubility for determination of photostability” value ([1]; solvent mix of the photostability method) does the source give for `CC1(C)CCN(C(C)(C)C)C=C1C(=O)C(F)(F)C(F)(F)C(F)(F)C(=O)C1=CN(C(C)(C)C)CCC1(C)C` [Compound 168] here?
The value was “not sufficiently soluble”.

And the “E (1%, 1 cm)” value ([3]; Table 6)?
The value was 1177.

What about the λcrit ([3]; Table 6) of the same molecule?
The λcrit was 337 nm.

What about the λmax ([3]; Table 6) of the same molecule?
The λmax was 317 nm.

What about the ε ([3]; Table 6, in M-1 cm-1 (unit assumed)) of the same molecule?
Its ε is 63346.

Which results are given for `CN(CCCCCCN(C)c1ccc(C(=O)C2=CN(C(C)(C)C)CCC2(C)C)cc1)c1ccc(C(=O)C2=CN(C(C)(C)C)CCC2(C)C)cc1` [Compound 109]?
Photostability, % remaining after irradiation ([2]; exposure to the lamp for 1 h): 22%; λcrit ([3]; Table 1): 364 nm

Which results are given for `CC1(C)CCN(c2ccc(N3C=C(C(=O)CCC(F)(F)F)C(C)(C)CC3)cc2)C=C1C(=O)CCC(F)(F)F` [Compound 157]?
% λmax (% of original absorbance remaining) [2]: 54%; Solubility in standard commercial sunscreen formulations [1]: readily soluble
